# In US20240196663A1, “DISPLAY APPARATUS, DISPLAY MODULE, AND ELECTRONIC DEVICE” (SEMICONDUCTOR ENERGY LABORATORY CO., LTD., priority 2022, published 2024):
# Test: physchem
row,pKa,Structure (SMILES)
1,9.58,"c1cc(N2CCCn3ccnc32)nc(N2CCCn3ccnc32)c1 [2,6tip2Py, 8,8′-pyridine-2,6-diyl-bis(5,6,7,8-tetrahydroimidazo[1,2-a]pyrimidine)]"
2,13.3,"c1cc2ccc3ccc(N4CCCN5CCCN=C54)nc3c2nc1N1CCCN2CCCN=C21 [2,9hpp2Phen, 2,9-bis(1,3,4,6,7,8-hexahydro-2H-pyrimido[1,2-a]pyrimidin-1-yl)-1,10-phenanthroline]"
3,13.9,"c1ccc2c(c1)-c1ccccc1C21c2ccccc2-c2ccc(N3CCCN4CCCN=C43)cc21 [2hppSF, 1-(9,9′-spirobi[9H-fluoren]-2-yl)-1,3,4,6,7,8-hexahydro-2H-pyrimido[1,2-a]pyrimidine]"
4,0.6,"c1cc(-c2ccc3oc4c(-c5cccc(-c6cccc7c6sc6ccccc67)c5)ncnc4c3c2)cc(-c2cccc3c2sc2ccccc23)c1 [4,8mDBtP2Bfpm, 4,8-bis[3-(dibenzothiophen-4-yl)phenyl]-[1]benzofuro[3,2-d]pyrimidine]"
5,11.2,"c1cc(N2CCCC2)c2ccc3c(N4CCCC4)ccnc3c2n1 [Pyrrd-Phen, 4,7-di-1-pyrrolidinyl-1,10-phenanthroline]"
6,0.37,"c1cnccn1 [pyrazine, reference compound]"

row,Structure (SMILES),pKa
1,"c1cnc2c(c1)ccc1cccnc12 [phenanthroline, reference compound]",4.8
